In series [1] the test system is marine bacteria strain S1. Description: disc inhibition assay, strain S1. The series is classed as cell-based, Rhodovulum iodosum. The conditions noted are these: strain 1, 50 μg of compound per disc. The gist of the method:
(§1)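 Zone-of-inhibition diameters (caliper, n=2 averaged) were recorded after overnight dark incubation at 35° C. Test discs of 6 mm bore 50 μg compound delivered in DMSO, placed on lawns of the marine strain grown in marine broth and spread on Marine Agar; solvent discs served as controls.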

The subject of series [2] is marine bacteria strain S3. As to the kind of experiment: disc inhibition assay, strain S3. The conditions noted are these: for zone of inhibition at 50 µg/disc: Qipengyuania aquimaris, S3, 24 h. The series is classed as cell-based, Erythrobacter aquimaris. The gist of the method:
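Antibacterial susceptibility was measured by agar disc diffusion. Compounds dissolved in DMSO were applied to 6 mm sterile discs and laid on Marine Agar lawns of a Singapore coastal marine bacterium cultured in marine broth. After overnight dark incubation at 35° C, clearing zone diameters were measured with Vernier calipers, and the two replicates were averaged.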

Series [3] deals with marine bacteria strain S4. Description: disc inhibition assay, strain S4. The series is classed as cell-based, Bacillus algicola. As to conditions: for zone of inhibition: strain 4, 50 μg of compound per disc. The gist of the method:
as §1

For series [4], the system named is marine bacteria strain S9. Description: disc inhibition assay, strain S9. The series is classed as cell-based, Bacillus algicola. As to conditions: for zone of inhibition at 50 µg/disc: Guptibacillus algicola, S9, 24 h. The gist of the method: as §1
Series [5] has as its system marine bacteria strain S10. As to the kind of experiment: disc inhibition assay, strain S10. It counts as cell-based, Halobacillus trueperi. The conditions noted are these: for zone of inhibition: strain 10, 50 μg of compound per disc. The gist of the method:
as §1

The subject of series [6] is marine bacteria strain S14. As to the kind of experiment: disc inhibition assay, strain S14. The conditions noted are these: strain 14, 50 μg of compound per disc. The series is classed as cell-based, Vibrio probioticus.
The subject of series [7] is marine bacteria strain S16. As to the kind of experiment: disc inhibition assay, strain S16. It counts as cell-based, Pseudoalteromonas piscicida. The conditions noted are these: for zone of inhibition at 50 µg/disc: Pseudoalteromonas piscicida, S16, 24 h. The gist of the method: as §1
Series [8] has as its system marine bacteria strain S17. Description: disc inhibition assay, strain S17. The series is classed as cell-based, Gordonia terrae. The conditions noted are these: for zone of inhibition: strain 17, 50 μg of compound per disc. The gist of the method:
as §1

The test system of series [9] is marine bacteria strain S18. As to the kind of experiment: disc inhibition assay, strain S18. It counts as cell-based, Microbacterium esteraromaticum. The conditions noted are these: for zone of inhibition: strain 18, 50 μg of compound per disc.
The test system of series [10] is marine bacteria strain S27. As to the kind of experiment: disc inhibition assay, strain S27. It counts as cell-based, Tenacibaculum lutimaris. The conditions noted are these: for zone of inhibition at 50 µg/disc: Tenacibaculum lutimaris, S27, 24 h. The gist of the method: as §1
Series [11] deals with marine bacteria strain S28. Description: disc inhibition assay, strain S28. The series is classed as cell-based, Arthrobacter protophormial. The conditions noted are these: for zone of inhibition: strain 28, 50 μg of compound per disc. The gist of the method: as §1
The subject of series [12] is marine bacteria strain S29. As to the kind of experiment: disc inhibition assay, strain S29. It counts as cell-based, Bacillus hwajinpoensis. As to conditions: for zone of inhibition: strain 29, 50 μg of compound per disc. The gist of the method:
as §1

In series [13] the test system is marine bacteria strain S30. As to the kind of experiment: disc inhibition assay, strain S30. It counts as cell-based, Bacillus borophilicus. The conditions noted are these: for zone of inhibition: strain 30, 50 μg of compound per disc. The gist of the method:
as §1

Series [14] has as its system Stage II nauplii of Balanus amphitrite. Description: barnacle toxicity assay. The series is classed as in vivo. As to conditions: Table 3(a); concentration that caused 50% mortality, 22 to 24 hours, Stage II nauplii. As for the experimental part: (§2) Pure compounds were suspended in DMSO and sonicated to obtain a stock solution of 50 mg ml^−1 in DMSO. This stock solution is stored at −20° C. in 4 ml amber screw cap vials. For the bioassays, a small volume of stock solution was added to 1 μm filtered seawater in a glass scintillation vial. This suspension was then sonicated around 10 minutes. Serial dilutions were generated to the required range of concentrations. Serial dilution of the equivalent amounts of DMSO in seawater was used as the control.
(§3) The barnacle bioassay method used follows from the method first introduced by Rittschof et al. (1992), and subsequently by other authors (Willemsen et al., 1998). This method is now standard practice for many antifouling screening of novel compounds.
Toxicity assays were modified from Rittschof et al. (1992). Stage II naupliar larvae used in tests were obtained from Balanus amphitrite adults collected from inter-tidal rock walls at Kranji mangrove, Singapore. Larvae were collected from a container of adults by attraction to a point source of light and transferred to 500 ml of fresh seawater. Next, larvae were re-concentrated with a fiber optic light and added to assays.
Duplicate assays were conducted in 2 ml glass vials (La Pha Pack® PN 11-14-0544) in 1 ml of filtered seawater for 22 to 24 hours. The assays were repeated for confirmation. There were two sets of controls, a blank control consisting of 3 tubes of seawater only, and DMSO control consisting of the equivalent dilution series with DMSO without compound). For the compounds, there were 3 tubes of each for each test concentration. The assay was initiated by addition of barnacle naupliar in 50 μl of seawater. After 22 to 24 hours of incubation at 25-27° C. solutions containing test animals were transferred to a Bogorov tray and scored as living or dead. Moribund larvae were scored as dead. Results were confirmed by repeating the assay. Data were combined and the concentration that caused 50% mortality (LD50) was calculated by probit analysis using a basic computer program (Libermann, 1983). If data were not appropriate for probit analysis, the LD50 was estimated from graphed data.

Series [15] deals with cyprids of Balanus amphitrite. As to the kind of experiment: barnacle settlement assay. It counts as in vivo. As to conditions: Amphibalanus amphitrite, 24 h, concentration that caused 50% settlement inhibition, 24 hours, cyprids. As for the experimental part: as §2, §3
Barnacle settlement assays were based on methodology from Rittschof et al. (1992). Barnacle larvae from field-collected adults were reared on an algal mixture of 1:1 v/v of Tetraselmis suecica and Chaetoceros muelleri at 25° C., at approximately 5×10^5 cells per ml density. On this regime, larvae metamorphose to cyprids in 5 days. These cyprids were aged at 4° C. for 2-3 days, and 45-70% settlement after 24 hours (Willemsen et al., 1998).
Settlement tests were conducted in 7 ml neutral glass vials (Samco® T1 03N1) 34 mm by 23 mm diameter, with 20-40 cyprids per well. Test solutions were made up to twice the required final concentration. 0.5 ml of test solution was added into each well, and cyprids were transferred into each well in 0.5 ml of seawater. Assays were done in triplicate. As before, there were two sets of controls, a blank control consisting 3 tubes of seawater only, and DMSO control consisting of the equivalent dilution series with DMSO without compound. After 24 hours, larvae that had attached and metamorphosed were enumerated and the result expressed as percentage settlement. Larvae not attached were scored as not settled. The assays were repeated and the concentration that caused 50% settlement inhibition (ED50) was determined by pro bit analysis using a basic computer program (Lieberman, 1983), or by estimation from graphed data.

The mark [16] stands for this setting: Table 3(a), read-out: ED50 (the source's name).

In general, zone of inhibition refers to the size of the clear area around the sample on an inoculated plate.

Values after ≈ are worked out from the molar mass of the structure shown. Read-outs that look alike come from different tables or passages of the source. Some results are limits rather than exact numbers.

Consider `O=C(Cc1ccccc1)N1CCC(O)(c2ccccc2)CC1` [Compound 10.4], for which the zone of inhibition result in series [1], in [3], in series [5], in series [6], in series [8] and in series [9] was “−” throughout. Besides, the zone of inhibition entry in series [11], in series [12] and in [13] was “−” in each case. Further, the zone of inhibition at 50 µg/disc was 2 to 5 mm in series [2] (strain 3, 50 μg of compound per disc, read-out: zone of inhibition); 2 to 5 mm in series [4] (strain 9, 50 μg of compound per disc, read-out: zone of inhibition); 2 to 5 mm in series [7] (strain 16, 50 μg of compound per disc, read-out: zone of inhibition); 2 to 5 mm in [10] (strain 27, 50 μg of compound per disc, read-out: zone of inhibition). Further, in series [14], the LD50 is greater than 50 µg/mL. The IC50 in series [15] (setting [16]) worked out at 15 µg/mL (≈ 50.8 µM).

As for `CN(C)C(=O)C(CCN1CCC(O)(c2ccc(Cl)cc2)CC1)(c1ccccc1)c1ccccc1` [LOP, loperamide, reference compound], the zone of inhibition result is “−” in series [1]; “−” in series [6]; “−” in [7] (strain 16, 50 μg of compound per disc). In addition, the zone of inhibition at 50 µg/disc was greater than 10 mm in [2]; 5 to 10 mm in series [3] (Guptibacillus algicola, S4, 24 h); 5 to 10 mm in series [4]; 5 to 10 mm in series [5] (Halobacillus trueperi, S10, 24 h); 5 to 10 mm in [8] (Gordonia terrae, S17, 24 h); greater than 10 mm in series [9] (Microbacterium esteraromaticum, S18, 24 h). The zone of inhibition at 50 µg/disc in series [10] was 5 to 10 mm; in series [11] (Arthrobacter, S28, 24 h), 5 to 10 mm; in [12] (Guptibacillus hwajinpoensis, S29, 24 h), 5 to 10 mm; in series [13] (Bacillus, S30, 24 h), 2 to 5 mm. Besides, the LD50 in [14] was found to be 1.56 µg/mL. Moreover, the IC50 in series [15] (read-out: ED50, Table 3(a)) was found to be 0.37 µg/mL (≈ 0.776 µM).

In the case of `CN1CCC(O)(c2ccccc2)CC1` [Compound 4.4], the zone of inhibition result in series [1] is “−”; in [2] (strain 3, 50 μg of compound per disc), “−”; in series [3], “−”; in [4] (strain 9, 50 μg of compound per disc), “−”; in series [5] it was “−”; in [6] it was “−”. The zone of inhibition entry in series [8] is listed as “−”; in series [9] it was “−”; in series [10] (strain 27, 50 μg of compound per disc), “−”; in [11], “−”; in series [12] it was “−”; in series [13] it was “−”. In series [7], this compound registered a zone of inhibition at 50 µg/disc of 2 to 5 mm. The LD50 in series [14] was 12.35 µg/mL. Besides, in series [15] (setting [16]), the IC50 was determined as 5.98 µg/mL (≈ 31.3 µM).
